The MIC is the lowest concentration that inhibits growth of the organism. The IC50 is the concentration needed to halve the response being measured. As usually defined, the EC50 is the concentration at which the effect is half-maximal. For orientation: GI50 means the concentration that inhibits growth by half.

For one assay, the system named is Escherichia coli. Kind of assay: Antibacterial activity against Escherichia coli assessed as reduction in bacterial growth. Format: functional.
In assay [1] the target is E3 ubiquitin-protein ligase CBL-B (Homo sapiens, UniProt Q13191). The assay can be described thus: Inhibition of recombinant Cbl-b (unknown origin) in presence of ATP incubated for 60 mins by ELISA analysis.
Assay [2] has as its system Staphylococcus aureus. The assay can be described thus: Antibacterial activity against methicillin resistant Staphylococcus aureus assessed as reduction in bacterial growth. Format: functional, organism-based.
For assay [3], the system named is Staphylococcus aureus. Kind of assay: Antibacterial activity against Staphylococcus aureus assessed as reduction in bacterial growth. Type of assay: functional.
The subject of another assay is Nannizzia gypsea. Kind of assay: Antifungal activity against Microsporum gypseum assessed as reduction in fungal growth. Type of assay: functional.
In a further assay the test system is HCT-8. Kind of assay: Cytotoxicity against human HCT-8 cells assessed as inhibition of cell growth incubated for 48 hrs by MTT assay. Format: functional, cell-based. The settings on record: HCT-8, 48 h. For orientation: Tetrazolium assays rely on reduction of a dye to a coloured formazan, in cell work by metabolically active cells.
Another assay relates to RAW264.7. The assay can be described thus: Inhibition of LPS-induced NO production in mouse RAW264.7 cells. Format: functional, cell-based.
In assay [4] the test system is Bacillus subtilis. Kind of assay: Antibacterial activity against Bacillus subtilis PCI219 assessed as reduction in bacterial growth. Type of assay: functional.
The test system of the next assay is Kocuria rhizophila. The assay can be described thus: Antibacterial activity against Kocuria rhizophila ATCC9341 assessed as reduction in bacterial growth. Format: functional.
Another assay relates to P388. Kind of assay: Cytotoxicity against mouse P388 cells assessed as inhibition of cell growth. Type of assay: functional, cell-based.
Assay [5] relates to Staphylococcus aureus. Kind of assay: Antibacterial activity against Staphylococcus aureus FDA 209P JC-1 assessed as reduction in bacterial growth. Format: functional.
Assay [6] can be described thus: Inhibition of neuronal excitability in mouse Primary neocortical neuron assessed as reduction in 4-AP-induced SCO amplitude measured for 1 hr by FLIPR assay. Type of assay: functional, cell-based.
Assay [7] can be described thus: Inhibition of neuronal excitability in mouse Primary neocortical neuron assessed as reduction in 4-AP-induced SCO frequency measured for 1 hr by FLIPR assay. Type of assay: functional, cell-based.
A further assay relates to A549. The assay can be described thus: Cytotoxicity against human A549 cells assessed as inhibition of cell growth incubated for 48 hrs by MTT assay. Format: functional, cell-based. Particulars: A549, 48 h.
The next assay deals with MDA-MB-231. Kind of assay: Growth inhibition of human MDA-MB-231 cells assessed inhibition of cell growth. Type of assay: functional.
Assay [8] concerns Bacillus subtilis. Kind of assay: Antibacterial activity against Bacillus subtilis ATCC 6633 assessed as reduction in bacterial growth. Type of assay: functional.
A further assay concerns HepG2. The assay can be described thus: Cytotoxicity against human HepG2 cells assessed as inhibition of cell growth. Format: functional, cell-based.
Assay [9] has as its system Trypanosoma brucei rhodesiense. Kind of assay: Antitrypanosomal activity against Trypanosoma brucei rhodesiense IL-1501 assessed as inhibition of cell growth incubated for 69 hrs by AlamarBlue assay. Type of assay: functional, organism-based. (In general: The colour change of resazurin is a common sign of viable cells or microbes.)
In the next assay the test system is HL-60. Kind of assay: Cytotoxicity against human HL-60 cells assessed as inhibition of cell growth. Type of assay: functional, cell-based.
Another assay has as its system Aspergillus sydowii. Kind of assay: Antifungal activity against Aspergillus sydowii SCSIO 00305 assessed as inhibition of fungal growth. Type of assay: functional, organism-based.

Converted amounts (≈) assume the structure as drawn.

Chain of E3 ubiquitin-protein ligase CBL-B (Q13191 whole entry): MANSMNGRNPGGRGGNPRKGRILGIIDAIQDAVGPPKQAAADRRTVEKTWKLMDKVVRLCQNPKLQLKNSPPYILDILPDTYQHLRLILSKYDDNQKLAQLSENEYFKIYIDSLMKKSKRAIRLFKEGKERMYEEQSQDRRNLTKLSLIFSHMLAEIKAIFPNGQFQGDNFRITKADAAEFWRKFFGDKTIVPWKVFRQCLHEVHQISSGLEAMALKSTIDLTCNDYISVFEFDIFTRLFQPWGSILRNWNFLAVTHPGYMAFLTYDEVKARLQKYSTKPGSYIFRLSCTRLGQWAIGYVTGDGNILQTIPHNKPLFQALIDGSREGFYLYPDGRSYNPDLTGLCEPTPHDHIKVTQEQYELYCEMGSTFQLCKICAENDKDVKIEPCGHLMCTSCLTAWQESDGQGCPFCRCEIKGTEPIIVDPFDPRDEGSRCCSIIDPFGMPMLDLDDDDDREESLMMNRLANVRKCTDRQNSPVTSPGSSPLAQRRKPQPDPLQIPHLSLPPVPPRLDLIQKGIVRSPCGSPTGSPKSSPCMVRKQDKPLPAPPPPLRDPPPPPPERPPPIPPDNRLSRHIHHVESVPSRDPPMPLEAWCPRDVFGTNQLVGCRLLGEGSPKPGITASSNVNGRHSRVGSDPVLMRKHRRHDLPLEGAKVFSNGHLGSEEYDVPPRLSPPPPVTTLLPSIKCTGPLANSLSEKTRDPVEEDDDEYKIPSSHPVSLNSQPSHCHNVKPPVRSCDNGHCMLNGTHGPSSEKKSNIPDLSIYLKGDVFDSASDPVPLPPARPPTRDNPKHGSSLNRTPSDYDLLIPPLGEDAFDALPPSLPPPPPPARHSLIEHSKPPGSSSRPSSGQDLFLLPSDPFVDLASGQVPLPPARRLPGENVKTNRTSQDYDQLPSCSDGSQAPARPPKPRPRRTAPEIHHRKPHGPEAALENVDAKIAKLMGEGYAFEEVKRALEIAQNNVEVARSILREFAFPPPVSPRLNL

With `O=C1C=Cc2c3c4c(c(O)ccc4c4ccc(O)c1c24)[C@@H](O)[C@H](Cl)[C@@H]3O`, the MIC with Escherichia coli is 6.25 µM (≈ 2.3 µg/mL).

On to `Cn1cc(Br)cc1C(=O)NC[C@@H]1[C@@H](CNC(=O)c2ccc(Br)[nH]2)Cc2nc(N)[nH]c2[C@H]1c1c[nH]c(N)n1`, for which the half-maximal inhibitory concentration (IC50) in assay [1] amounted to 33 µM.

Regarding `Cc1cc(O)c2c3c(c(O)cc(OC[C@@H](O)C(C)(C)Cl)c13)C(=O)C2=O`, the minimum inhibitory concentration (MIC) in the assay with Staphylococcus aureus [2] stood at 12.5 µM.

As for `O=C1NC[C@H](c2cc(Br)c(OC[C@H](O)CNC(=O)/C(Cc3cc(Br)c(O)c(Br)c3O)=N\O)c(Br)c2)O1`, the minimum inhibitory concentration (MIC) in the assay on Staphylococcus aureus [3] came to 5.2 µM.

Take `C=C(CCC=C(C)C)[C@]1(O)CC[C@@](C)(Cl)[C@H](Br)C1`: the values for the minimal inhibitory concentration (MIC) in the assay with Nannizzia gypsea and with Staphylococcus aureus [3] were 8 µg/mL (≈ 23.8 µM) and 15.4 µg/mL, respectively.

Consider `C=C(COC(=O)Cc1cc(O)c(O)c(Cl)c1)[C@@]12O[C@@H]1[C@@]1(C)C(=CC2=O)CC[C@@H](O)[C@@H]1C`, for which the 50% inhibitory concentration (IC50) with HCT-8 stood at 5.4 µM.

Regarding `CC(=O)/C=C/C1=CC[C@H]2[C@@H](C[C@@H]1C)OC(=O)[C@]2(O)CCl`, the IC50 with RAW264.7 was found to be 16 µM.

Consider `Cc1c(O)cc2c(c1O)C(=O)C1=C(OC(C)(C)[C@H](Cl)C1)C2=O`, for which the MIC in the assay with Bacillus subtilis [4], in the assay with Kocuria rhizophila and in the assay on Staphylococcus aureus [5] was 6.25 µg/mL (≈ 19.4 µM) throughout. Moreover, the IC50 in the assay on P388 is 9.8 µM.

In the case of `CC(C)(O)C(=O)OC[C@](C)(O)[C@H]1OC2=CC[C@@]3(C)[C@@](O)(CC[C@H]4Cc5c([nH]c6cc(Cl)ccc56)[C@@]43C)C2=CC1=O`, the EC50 amounted to 5.62 µM in assay [6] and 4.77 µM in assay [7].

Regarding `CC(C)=C1C[C@@]2(COC(=O)Cc3cc(O)c(O)c(Cl)c3)C(=CC1=O)CC[C@@H](O)[C@@H]2C`, in the assay with A549, the IC50 stood at 3.2 µM.

In the assay with MDA-MB-231, `CCCCC[C@H]1CCC[C@@H](Cl)C[C@@H](OC)c2cc(O)c(c(O[C@@H]3OC[C@@H](O)[C@H](O)[C@H]3O)c2)[C@@H](CCCC)CCC[C@@H](Cl)C[C@@H](OC)c2cc(O)c1c(O)c2` had a GI50 of 0.72 µM.

In the assay on MDA-MB-231, `CCCC[C@H]1CCCCC[C@@H](O)c2cc(O)c(c(O)c2)[C@@H](CCCC)CCC[C@@H](Cl)C[C@@H](OC)c2cc(O)c1c(O)c2` yielded a GI50 of 0.72 µM.

Regarding `C=C(C)[C@@H](O)CC/C(C)=C1\CC[C@](C)(Cl)[C@@H](Br)C1`, the MIC in the assay on Nannizzia gypsea worked out at 4 µg/mL (≈ 11.9 µM); in the assay on Staphylococcus aureus [3], 26.8 µg/mL.

On to `CO[C@H]1C[C@@H](O)[C@H](OC)c2oc3c4c5c(c(O)c3c(=O)c21)-c1c(cc2c(Cl)c(C)[nH]c(=O)c2c1O)C[C@H]5OCO4`, for which the MIC with Staphylococcus aureus [5] was found to be 0.049 µg/mL (≈ 0.086 µM); in the assay on Bacillus subtilis [8], 0.098 µg/mL (≈ 0.172 µM).

As for `COc1c(Br)cc(C/C(=N/O)C(=O)NC[C@@H](O)COc2c(Br)cc([C@H]3CNC(=O)O3)cc2Br)c(O)c1Br`, the minimum inhibitory concentration (MIC) in the assay on Staphylococcus aureus [3] was 5.2 µM.

Regarding `C=C1C[C@H](O)[C@H](Br)C(C)(C)[C@]12CC=C(COC)CC2`, the concentration for half-maximal inhibition (IC50) in the assay with HepG2 amounted to 4.08 µM.

As to `CCCC[C@H]1CCC[C@@H](Cl)CCc2cc(O)c(c(O)c2)[C@@H](CCCC)CCC[C@@H](Cl)C[C@@H](OC)c2cc(O)c1c(O)c2`, the GI50 with MDA-MB-231 worked out at 0.72 µM.

Consider `Oc1cc(Br)cc(Br)c1Oc1cc(Br)c(Br)c(Br)c1Oc1ccc(Br)cc1Br`, for which the IC50 in assay [9] is 1.2 µM.

For the molecule `CC[C@H](C)[C@H]1O[C@@H](CC(C)=O)O[C@@]1(C)/C=C/C1=CC2=C(Cl)C(=O)[C@](C)(O)[C@H](OC(C)=O)[C@H]2CO1`, in the assay on Staphylococcus aureus [2], the MIC was found to be 12.5 µg/mL.

For `Oc1cc(Br)cc(Br)c1Oc1cc(Br)c(Br)c(Br)c1Oc1ccc(Br)cc1I`, the IC50 in [9] is 0.7 µM.

`CC(C)/C1=C/[C@H](O)[C@](C)(O)CC[C@H](Cl)[C@@]2(C)CC[C@H](O2)[C@](C)(O)CC1`: the IC50 in the assay with HL-60 worked out at 3.67 µM.

`COc1cc2oc3cc4c(c(OC)c3c(=O)c2c(OC)c1Cl)[C@@H]1C=CO[C@@H]1O4`: the IC50 in the assay with Aspergillus sydowii was 2.9 µM.

Values taken from ChEMBL document CHEMBL5385919, “A Survey of Recently Discovered Naturally Occurring Organohalogen Compounds” (J Nat Prod, 2024).
